Test results: PubChem BioAssay (NCI)
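Five compound concentrations were applied to cells in 96-well plates for 48 hours; endpoints were derived by simple linear interpolation of the resulting dose-response curve. GI50: concentration for 50% inhibition of growth. TGI: concentration producing complete growth inhibition.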

Experiments:
Test in all cases: inhibition of tumour cell growth, NCI panel, 48 h
786-0 renal = tested on: 786-0 renal
A498 renal = tested on: A498 renal
A549 NSCLC = tested on: A549 NSCLC
ACHN renal = tested on: ACHN renal
CAKI-1 renal = tested on: CAKI-1 renal
CCRF-CEM leukemia = tested on: CCRF-CEM leukemia
COLO 205 colon = tested on: COLO 205 colon
DLD-1 colon = tested on: DLD-1 colon
DMS 114 small cell lung = tested on: DMS 114 small cell lung
EKVX NSCLC = tested on: EKVX NSCLC
HCC-2998 colon = tested on: HCC-2998 colon
HCT-116 colon = tested on: HCT-116 colon
HOP-62 NSCLC = tested on: HOP-62 NSCLC
HT29 colon = tested on: HT29 colon
IGROV1 ovarian = tested on: IGROV1 ovarian
K-562 leukemia = tested on: K-562 leukemia
KM12 colon = tested on: KM12 colon
KM20L2 colon = tested on: KM20L2 colon
LOX IMVI melanoma = tested on: LOX IMVI melanoma
LXFL 529 NSCLC = tested on: LXFL 529 NSCLC
M14 melanoma = tested on: M14 melanoma
M19-MEL melanoma = tested on: M19-MEL melanoma
MALME-3M melanoma = tested on: MALME-3M melanoma
MOLT-4 leukemia = tested on: MOLT-4 leukemia
NCI-H23 lung = tested on: NCI-H23 lung
NCI-H460 lung = tested on: NCI-H460 lung
NCI-H522 lung = tested on: NCI-H522 lung
OVCAR-3 ovarian = tested on: OVCAR-3 ovarian
OVCAR-4 ovarian = tested on: OVCAR-4 ovarian
OVCAR-8 ovarian = tested on: OVCAR-8 ovarian
RPMI-8226 leukemia = tested on: RPMI-8226 leukemia
RXF 393 renal = tested on: RXF 393 renal
SF-268 CNS = tested on: SF-268 CNS
SF-295 CNS = tested on: SF-295 CNS
SF-539 CNS = tested on: SF-539 CNS
SK-MEL-2 melanoma = tested on: SK-MEL-2 melanoma
SK-MEL-28 melanoma = tested on: SK-MEL-28 melanoma
SK-MEL-5 melanoma = tested on: SK-MEL-5 melanoma
SK-OV-3 ovarian = tested on: SK-OV-3 ovarian
SN12C renal = tested on: SN12C renal
SNB-75 CNS = tested on: SNB-75 CNS
SW-620 colon = tested on: SW-620 colon
TK-10 renal = tested on: TK-10 renal
U251 CNS = tested on: U251 CNS
UACC-257 melanoma = tested on: UACC-257 melanoma
UACC-62 melanoma = tested on: UACC-62 melanoma
XF 498 CNS = tested on: XF 498 CNS
DMS 273 small cell lung = tested on: DMS 273 small cell lung
HCT-15 colon = tested on: HCT-15 colon
HL-60(TB) leukemia = tested on: HL-60(TB) leukemia
HOP-18 NSCLC = tested on: HOP-18 NSCLC
NCI-H226 lung = tested on: NCI-H226 lung
OVCAR-5 ovarian = tested on: OVCAR-5 ovarian
SNB-19 CNS = tested on: SNB-19 CNS
SNB-78 CNS = tested on: SNB-78 CNS
UO-31 renal = tested on: UO-31 renal
HOP-92 NSCLC = tested on: HOP-92 NSCLC
SR leukemia = tested on: SR leukemia

CNC(C)(C)Cc1ccc(Cl)cc1
TGI (786-0 renal): > 100 µM
TGI (A498 renal): > 100 µM
TGI (A549 NSCLC): > 100 µM
TGI (ACHN renal): > 100 µM
TGI (CAKI-1 renal): > 100 µM
TGI (CCRF-CEM leukemia): > 100 µM
TGI (COLO 205 colon): > 100 µM
TGI (DLD-1 colon): > 100 µM
TGI (DMS 114 small cell lung): > 100 µM
TGI (EKVX NSCLC): > 100 µM
TGI (HCC-2998 colon): > 100 µM
TGI (HCT-116 colon): > 100 µM
TGI (HOP-62 NSCLC): > 100 µM
TGI (HT29 colon): > 100 µM
TGI (IGROV1 ovarian): > 100 µM
TGI (K-562 leukemia): > 100 µM
TGI (KM12 colon): > 100 µM
TGI (KM20L2 colon): > 100 µM
TGI (LOX IMVI melanoma): > 100 µM
TGI (LXFL 529 NSCLC): > 100 µM
TGI (M14 melanoma): > 100 µM
TGI (M19-MEL melanoma): > 100 µM
TGI (MALME-3M melanoma): > 100 µM
TGI (MOLT-4 leukemia): > 100 µM
TGI (NCI-H23 lung): > 100 µM
TGI (NCI-H460 lung): > 100 µM
TGI (NCI-H522 lung): > 100 µM
TGI (OVCAR-3 ovarian): > 100 µM
TGI (OVCAR-4 ovarian): > 100 µM
TGI (OVCAR-8 ovarian): > 100 µM
TGI (RPMI-8226 leukemia): > 100 µM
TGI (RXF 393 renal): > 100 µM
TGI (SF-268 CNS): > 100 µM
TGI (SF-295 CNS): > 100 µM
TGI (SF-539 CNS): > 100 µM
TGI (SK-MEL-2 melanoma): > 100 µM
TGI (SK-MEL-28 melanoma): > 100 µM
TGI (SK-MEL-5 melanoma): > 100 µM
TGI (SK-OV-3 ovarian): > 100 µM
TGI (SN12C renal): > 100 µM
TGI (SNB-75 CNS): > 100 µM
TGI (SW-620 colon): > 100 µM
TGI (TK-10 renal): > 100 µM
TGI (U251 CNS): > 100 µM
TGI (UACC-257 melanoma): > 100 µM
TGI (UACC-62 melanoma): > 100 µM
TGI (XF 498 CNS): > 100 µM

CN(C(=O)/C=C/c1ccccc1)C1C2CN3CCC(O2)C13 (stereo unspecified)
TGI (786-0 renal): > 100 µM
TGI (A498 renal): > 100 µM
TGI (A549 NSCLC): > 100 µM
TGI (ACHN renal): > 100 µM
TGI (CAKI-1 renal): > 100 µM
TGI (CCRF-CEM leukemia): > 100 µM
TGI (COLO 205 colon): > 100 µM
TGI (DLD-1 colon): > 100 µM
TGI (DMS 114 small cell lung): > 100 µM
TGI (DMS 273 small cell lung): > 100 µM
TGI (EKVX NSCLC): > 100 µM
TGI (HCC-2998 colon): > 100 µM
TGI (HCT-116 colon): > 100 µM
TGI (HCT-15 colon): > 100 µM
TGI (HL-60(TB) leukemia): > 100 µM
TGI (HOP-18 NSCLC): > 100 µM
TGI (HOP-62 NSCLC): > 100 µM
TGI (HT29 colon): > 100 µM
TGI (IGROV1 ovarian): > 100 µM
TGI (K-562 leukemia): > 100 µM
TGI (KM12 colon): > 100 µM
TGI (KM20L2 colon): > 100 µM
TGI (LOX IMVI melanoma): > 100 µM
TGI (LXFL 529 NSCLC): > 100 µM
TGI (M14 melanoma): > 100 µM
TGI (MALME-3M melanoma): > 100 µM
TGI (MOLT-4 leukemia): > 100 µM
TGI (NCI-H226 lung): > 100 µM
TGI (NCI-H23 lung): > 100 µM
TGI (NCI-H460 lung): > 100 µM
TGI (NCI-H522 lung): > 100 µM
TGI (OVCAR-3 ovarian): > 100 µM
TGI (OVCAR-4 ovarian): > 100 µM
TGI (OVCAR-5 ovarian): > 100 µM
TGI (OVCAR-8 ovarian): > 100 µM
TGI (RXF 393 renal): > 100 µM
TGI (SF-268 CNS): > 100 µM
TGI (SF-295 CNS): > 100 µM
TGI (SF-539 CNS): > 100 µM
TGI (SK-MEL-2 melanoma): > 100 µM
TGI (SK-MEL-28 melanoma): > 100 µM
TGI (SK-MEL-5 melanoma): > 100 µM
TGI (SK-OV-3 ovarian): > 100 µM
TGI (SN12C renal): > 100 µM
TGI (SNB-19 CNS): > 100 µM
TGI (SNB-75 CNS): > 100 µM
TGI (SNB-78 CNS): > 100 µM
TGI (SW-620 colon): > 100 µM
TGI (TK-10 renal): > 100 µM
TGI (U251 CNS): > 100 µM
TGI (UACC-257 melanoma): > 100 µM
TGI (UACC-62 melanoma): > 100 µM
TGI (UO-31 renal): > 100 µM
TGI (XF 498 CNS): > 100 µM

CCOC(=O)C(C#N)(Cc1c[nH]c2ccccc12)NC(C)=O (stereo unspecified)
TGI (ACHN renal): > 100 µM
TGI (CAKI-1 renal): > 100 µM
TGI (CCRF-CEM leukemia): > 100 µM
TGI (COLO 205 colon): > 100 µM
TGI (DLD-1 colon): > 100 µM
TGI (DMS 114 small cell lung): > 100 µM
TGI (DMS 273 small cell lung): > 100 µM
TGI (EKVX NSCLC): > 100 µM
TGI (HCC-2998 colon): > 100 µM
TGI (HCT-116 colon): > 100 µM
TGI (HCT-15 colon): > 100 µM
TGI (HL-60(TB) leukemia): > 100 µM
TGI (HOP-62 NSCLC): > 100 µM
TGI (HOP-92 NSCLC): > 100 µM
TGI (HT29 colon): > 100 µM
TGI (IGROV1 ovarian): > 100 µM
TGI (K-562 leukemia): > 100 µM
TGI (KM12 colon): > 100 µM
TGI (KM20L2 colon): > 100 µM
TGI (LOX IMVI melanoma): > 100 µM
TGI (LXFL 529 NSCLC): > 100 µM
TGI (M14 melanoma): > 100 µM
TGI (M19-MEL melanoma): > 100 µM
TGI (MALME-3M melanoma): > 100 µM
TGI (MOLT-4 leukemia): > 100 µM
TGI (NCI-H226 lung): > 100 µM
TGI (NCI-H23 lung): > 100 µM
TGI (NCI-H460 lung): > 100 µM
TGI (NCI-H522 lung): > 100 µM
TGI (OVCAR-3 ovarian): > 100 µM
TGI (OVCAR-4 ovarian): > 100 µM
TGI (OVCAR-5 ovarian): > 100 µM
TGI (OVCAR-8 ovarian): > 100 µM
TGI (RPMI-8226 leukemia): > 100 µM
TGI (RXF 393 renal): > 100 µM
TGI (SF-268 CNS): > 100 µM
TGI (SF-295 CNS): > 100 µM
TGI (SK-MEL-2 melanoma): > 100 µM
TGI (SK-MEL-28 melanoma): > 100 µM
TGI (SK-MEL-5 melanoma): > 100 µM
TGI (SK-OV-3 ovarian): > 100 µM
TGI (SN12C renal): > 100 µM
TGI (SNB-75 CNS): > 100 µM
TGI (SW-620 colon): > 100 µM
TGI (TK-10 renal): > 100 µM
TGI (U251 CNS): > 100 µM
TGI (UACC-257 melanoma): > 100 µM
TGI (UACC-62 melanoma): > 100 µM
TGI (UO-31 renal): > 100 µM

N=C1C(=N)c2ccccc2-c2ccccc21.[Cl-].[Ru+2].c1ccc(-c2ccccn2)nc1.c1ccc(-c2ccccn2)nc1
TGI (786-0 renal): > 100 µM
TGI (A549 NSCLC): > 100 µM
TGI (ACHN renal): > 100 µM
TGI (CCRF-CEM leukemia): > 100 µM
TGI (EKVX NSCLC): > 100 µM
TGI (HCC-2998 colon): > 100 µM
TGI (HCT-116 colon): > 100 µM
TGI (HCT-15 colon): > 100 µM
TGI (HL-60(TB) leukemia): > 100 µM
TGI (HOP-62 NSCLC): > 100 µM
TGI (HOP-92 NSCLC): > 100 µM
TGI (HT29 colon): > 100 µM
TGI (IGROV1 ovarian): > 100 µM
TGI (K-562 leukemia): > 100 µM
TGI (KM12 colon): > 100 µM
GI50 (KM20L2 colon): > 100 µM
TGI (KM20L2 colon): > 100 µM
TGI (LOX IMVI melanoma): > 100 µM
GI50 (LXFL 529 NSCLC): > 100 µM
TGI (LXFL 529 NSCLC): > 100 µM
TGI (M14 melanoma): > 100 µM
GI50 (M19-MEL melanoma): > 100 µM
TGI (M19-MEL melanoma): > 100 µM
TGI (MALME-3M melanoma): > 100 µM
TGI (MOLT-4 leukemia): > 100 µM
TGI (NCI-H23 lung): > 100 µM
TGI (NCI-H460 lung): > 100 µM
TGI (NCI-H522 lung): > 100 µM
TGI (OVCAR-3 ovarian): > 100 µM
TGI (OVCAR-4 ovarian): > 100 µM
TGI (OVCAR-5 ovarian): > 100 µM
TGI (OVCAR-8 ovarian): > 100 µM
TGI (RXF 393 renal): > 100 µM
TGI (SF-268 CNS): > 100 µM
TGI (SF-295 CNS): > 100 µM
TGI (SF-539 CNS): > 100 µM
TGI (SK-MEL-2 melanoma): > 100 µM
TGI (SK-MEL-28 melanoma): > 100 µM
TGI (SK-MEL-5 melanoma): > 100 µM
TGI (SK-OV-3 ovarian): > 100 µM
TGI (SN12C renal): > 100 µM
TGI (SNB-75 CNS): > 100 µM
GI50 (SNB-78 CNS): > 100 µM
TGI (SNB-78 CNS): > 100 µM
TGI (SR leukemia): > 100 µM
TGI (SW-620 colon): > 100 µM
TGI (TK-10 renal): > 100 µM
TGI (U251 CNS): > 100 µM
TGI (UACC-257 melanoma): > 100 µM
TGI (UACC-62 melanoma): > 100 µM
TGI (UO-31 renal): > 100 µM
